Experimental data published in paper PMC5729930, “Bitopic fluorescent antagonists of the A2A adenosine receptor based on pyrazolo[4,3-e][1,2,4]triazolo[1,5-c]pyrimidin-5-amine functionalized congeners” (MedChemComm, 2017).

Target: 45 diverse receptors
Assay: PDSP comprehensive off-target screen
Format: binding
Conditions: PDSP comprehensive screen at 45 targets
Procedure: . Off-target binding activities at 45 diverse receptors were determined by PDSP[25] for selected compounds: 6c and 13 (ESI ^†). […]; 1.92 μM, 5HT2B receptor. Thus, the primary amine precursor of the fluorescent conjugates 10–12 was not promiscuous in its interaction with other proteins, i.e. this chemical series is not associated with pan-assay interference compounds.[26]
Chinese hamster ovary (CHO) cells stably expressing the human A2AAR were cultured in Dulbecco's Modified Eagle Medium (Mediatech, Manassas, VA) supplemented with 10% fetal bovine serum, 100 units/ml penicillin, 100 µg/ml streptomycin and 2 µmol/ml glutamine. Cells were plated in 96-well plates in 100 µl medium. After 24 h, the medium was removed and cells were washed three times with 100 µl DMEM, containing 50 mM HEPES, pH 7.4. Cells were treated with antagonists (or medium for control) in the presence of rolipram (10 µM) and adenosine deaminase (3 units/ml) and 5 min later with agonist for 20 min. The reaction was terminated by removal of the supernatant, and cells were lysed upon the addition of 100 µl of lysis buffer (0.3% Tween-20). cAMP was measured using ALPHAScreen cAMP kits (PerkinElmer, Boston, MA) as instructed by the manufacturer.
Refer to: http://pdspdb.unc.edu for full list of comprehensive screen at 45 targets.
5HT2A serotonin receptor: […]

- Off-target interactions (Ki in radioligand binding inhibition < 10 µM): None detected
SMILES: N.Nc1nc2c(cnn2CCCc2ccc(OCc3ccc(S(=O)(=O)O)cc3)cc2)c2nc(-c3ccco3)nn12 [compound 13]
